Assay results as given in patent publication US20250304576A1 (Cancer Research Technology Limited, priority 2022, published 2025).
pKi: −log10 of the molar value.

Key:
Recombinant IKKα = target: T1, Recombinant IKKα (Homo sapiens, UniProt O15111); test: DELFIA IKKα kinase assay (apparent Ki, Cheng-Prusoff); type: biochemical; conditions: DELFIA assay (first line of an example)
T1 construct: purchased Millipore, Dundee, UK
T1 sequence (O15111 1-745): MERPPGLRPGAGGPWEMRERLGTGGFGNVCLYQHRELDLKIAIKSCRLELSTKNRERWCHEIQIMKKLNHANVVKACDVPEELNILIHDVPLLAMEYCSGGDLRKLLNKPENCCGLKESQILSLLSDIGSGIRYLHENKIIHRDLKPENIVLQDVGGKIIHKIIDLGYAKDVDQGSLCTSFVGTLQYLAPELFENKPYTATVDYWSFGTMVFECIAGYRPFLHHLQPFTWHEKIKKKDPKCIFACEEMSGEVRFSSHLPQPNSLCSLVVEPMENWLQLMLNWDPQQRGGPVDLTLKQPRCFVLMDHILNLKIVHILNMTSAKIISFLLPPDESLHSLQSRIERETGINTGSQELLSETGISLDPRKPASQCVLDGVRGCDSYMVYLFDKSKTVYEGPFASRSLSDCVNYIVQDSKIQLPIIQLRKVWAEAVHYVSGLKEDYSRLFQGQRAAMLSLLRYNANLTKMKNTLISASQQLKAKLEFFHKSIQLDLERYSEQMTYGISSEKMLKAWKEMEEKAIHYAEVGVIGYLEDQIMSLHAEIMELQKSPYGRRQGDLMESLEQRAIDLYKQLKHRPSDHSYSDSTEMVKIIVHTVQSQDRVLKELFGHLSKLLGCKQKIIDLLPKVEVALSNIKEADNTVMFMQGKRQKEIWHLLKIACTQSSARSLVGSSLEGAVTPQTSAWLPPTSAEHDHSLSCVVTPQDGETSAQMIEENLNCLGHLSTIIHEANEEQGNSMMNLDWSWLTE
Procedure, shortened: (§1)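 Recombinant IKKα or IKKβ (37 nM) with 0.375 μM biotinylated IκB-α (Ser32) peptide and 40 μM ATP in 40 mM Tris-HCl pH 7.5, 20 mM MgCl2, 60 min at 30° C. Phospho-substrate captured on streptavidin and detected by anti-phospho-IκB-α plus europium anti-mouse IgG time-resolved fluorescence; apparent Ki via Cheng-Prusoff.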

Recombinant IKKβ = target: T2, Recombinant IKKβ (Homo sapiens, UniProt O14920); test: DELFIA IKKβ kinase assay (apparent Ki, Cheng-Prusoff); type: biochemical; conditions: DELFIA assay (first line of an example)
T2 construct: purchased Millipore, Dundee, UK
T2 sequence (O14920 1-756): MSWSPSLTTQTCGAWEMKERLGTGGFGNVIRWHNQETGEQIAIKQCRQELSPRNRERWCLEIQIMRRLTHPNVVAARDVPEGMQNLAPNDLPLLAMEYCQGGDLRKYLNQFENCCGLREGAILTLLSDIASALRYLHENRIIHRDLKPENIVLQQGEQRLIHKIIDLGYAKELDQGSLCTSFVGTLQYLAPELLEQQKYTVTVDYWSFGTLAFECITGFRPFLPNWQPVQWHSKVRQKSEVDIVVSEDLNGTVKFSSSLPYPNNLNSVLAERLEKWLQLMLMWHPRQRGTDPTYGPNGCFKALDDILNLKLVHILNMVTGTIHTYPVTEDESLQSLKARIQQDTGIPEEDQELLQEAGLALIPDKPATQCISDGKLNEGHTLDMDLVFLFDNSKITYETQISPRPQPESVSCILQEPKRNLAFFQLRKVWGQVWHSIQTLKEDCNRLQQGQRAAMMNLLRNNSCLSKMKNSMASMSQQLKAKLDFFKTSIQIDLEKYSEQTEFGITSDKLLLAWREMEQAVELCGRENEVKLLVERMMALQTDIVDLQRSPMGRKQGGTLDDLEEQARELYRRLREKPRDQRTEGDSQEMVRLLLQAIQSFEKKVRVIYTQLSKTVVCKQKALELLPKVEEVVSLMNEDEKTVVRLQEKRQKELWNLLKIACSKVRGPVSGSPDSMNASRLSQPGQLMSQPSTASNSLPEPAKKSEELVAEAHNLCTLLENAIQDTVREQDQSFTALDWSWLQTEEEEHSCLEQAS
Procedure, shortened: as §1

With `Cn1ccc(Nc2cc(-c3cc(C#CC(C)(C)C)c4[nH]nc(N)c4c3)ccn2)n1` [Example 302, 7-(3,3-dimethylbut-1-yn-1-yl)-5-(2-((1-methyl-1H-pyrazol-3-yl)amino)pyridin-4-yl)-1H-indazol-3-amine] the pKi (Recombinant IKKα) was 7.21 and the pKi (Recombinant IKKβ) was 6.83.
Work on `Cn1cc(Nc2cc(-c3cc(C#CC(C)(C)C)c4[nH]nc(N)c4c3)ccn2)cn1` [Example 303, 7-(3,3-dimethylbut-1-yn-1-yl)-5-(2-((1-methyl-1H-pyrazol-4-yl)amino)pyridin-4-yl)-1H-indazol-3-amine] yielded a pKi (Recombinant IKKα) of 7.44 and a pKi (Recombinant IKKβ) of 7.17.
`COC(=O)Nc1cc(-c2cc(C#CC3(O)CCCC3)c3[nH]nc(N)c3c2)ccn1` [Example 304, Methyl (4-(3-amino-7-((1-hydroxycyclopentyl)ethynyl)-1H-indazol-5-yl)pyridin-2-yl)carbamate] gave a pKi (Recombinant IKKα) of 7.19 and a pKi (Recombinant IKKβ) of 6.56.
`Nc1n[nH]c2c(C#CC3(O)CCCC3)cc(-c3ccnc(NC4COC4)c3)cc12` [Example 305, 1-((3-Amino-5-(2-(oxetan-3-ylamino)pyridin-4-yl)-1H-indazol-7-yl)ethynyl)cyclopentan-1-ol] was tested, and the pKi (Recombinant IKKα) was 7.02 and the pKi (Recombinant IKKβ) was 5.96.
Molecule `CC(C)(C)C#Cc1cc(-c2ccnc3[nH]c(C(F)(F)F)nc23)cc2c(N)n[nH]c12` [Example 308, 7-(3,3-dimethylbut-1-yn-1-yl)-5-(2-(trifluoromethyl)-3H-imidazo[4,5-b]pyridin-7-yl)-1H-indazol-3-amine] has a pKi (Recombinant IKKα) of 6.65 and a pKi (Recombinant IKKβ) of less than 5.48.
For `CC(C)(C)C#Cc1cc(-c2ccnc(NC#N)c2)cc2c(N)n[nH]c12` [Example 309, N-(4-(3-Amino-7-(3,3-dimethylbut-1-yn-1-yl)-1H-indazol-5-yl)pyridin-2-yl)cyanamide], the pKi (Recombinant IKKα) was 6.38 and the pKi (Recombinant IKKβ) was 5.06.
For `CC(C)(C)C#Cc1cc(-c2ccnc(Nc3cc[nH]n3)c2)cc2c(N)n[nH]c12` [Example 310, 5-(2-((1H-Pyrazol-3-yl)amino)pyridin-4-yl)-7-(3,3-dimethylbut-1-yn-1-yl)-1H-indazol-3-amine], the pKi (Recombinant IKKα) was 7.32 and the pKi (Recombinant IKKβ) was 6.69.
`CC(C)(C)C#Cc1cc(-c2ccnc(Nc3cn[nH]c3)c2)cc2c(N)n[nH]c12` [Example 311, 5-(2-((1H-Pyrazol-4-yl)amino)pyridin-4-yl)-7-(3,3-dimethylbut-1-yn-1-yl)-1H-indazol-3-amine] showed a pKi (Recombinant IKKα) of 8.00 and a pKi (Recombinant IKKβ) of 6.55.
`Cc1cc(Nc2cc(-c3cc(C#CC(C)(C)C)c4[nH]nc(N)c4c3)ccn2)n[nH]1` [Example 312, 7-(3,3-Dimethylbut-1-yn-1-yl)-5-(2-((5-methyl-1H-pyrazol-3-yl)amino)pyridin-4-yl)-1H-indazol-3-amine] showed a pKi (Recombinant IKKα) of 7.35 and a pKi (Recombinant IKKβ) of 6.68.
In the case of `Cc1n[nH]cc1Nc1cc(-c2cc(C#CC(C)(C)C)c3[nH]nc(N)c3c2)ccn1` [Example 313, 7-(3,3-Dimethylbut-1-yn-1-yl)-5-(2-((3-methyl-1H-pyrazol-4-yl)amino)pyridin-4-yl)-1H-indazol-3-amine], the pKi (Recombinant IKKα) was 7.62 and the pKi (Recombinant IKKβ) was 6.03.
`CC(C)(C)C#Cc1cc(-c2ccnc(Nc3nccs3)c2)cc2c(N)n[nH]c12` [Example 314, N-(4-(3-Amino-7-(3,3-dimethylbut-1-yn-1-yl)-1H-indazol-5-yl)pyridin-2-yl)thiazol-2-amine] was tested, and the pKi (Recombinant IKKα) was 6.04 and the pKi (Recombinant IKKβ) was no more than 5.00.
`Cc1coc(Nc2cc(-c3cc(C#CC(C)(C)C)c4[nH]nc(N)c4c3)ccn2)n1` [Example 315, N-(4-(3-Amino-7-(3,3-dimethylbut-1-yn-1-yl)-1H-indazol-5-yl)pyridin-2-yl)-4-methyloxazol-2-amine] was tested, and the pKi (Recombinant IKKα) was 7.27 and the pKi (Recombinant IKKβ) was 6.08.
`CC(C)(C)C#Cc1cc(-c2ccnc(Nc3nc(C(F)(F)F)co3)c2)cc2c(N)n[nH]c12` [Example 316, N-(4-(3-Amino-7-(3,3-dimethylbut-1-yn-1-yl)-1H-indazol-5-yl)pyridin-2-yl)-4-(trifluoromethyl)oxazol-2-amine] was tested, and the pKi (Recombinant IKKα) was 6.47 and the pKi (Recombinant IKKβ) was less than 4.52.
`Cc1noc(C)c1Nc1cc(-c2cc(C#CC(C)(C)C)c3[nH]nc(N)c3c2)ccn1` [Example 317, N-(4-(3-amino-7-(3,3-dimethylbut-1-yn-1-yl)-1H-indazol-5-yl)pyridin-2-yl)-3,5-dimethylisoxazol-4-amine] showed a pKi (Recombinant IKKα) of 6.50 and a pKi (Recombinant IKKβ) of 5.39.
`CC(C)(C)C#Cc1cc(-c2ccnc(Nc3c[nH]cn3)c2)cc2c(N)n[nH]c12` [Example 318, 5-(2-((1H-Imidazol-4-yl)amino)pyridin-4-yl)-7-(3,3-dimethylbut-1-yn-1-yl)-1H-indazol-3-amine] gave a pKi (Recombinant IKKα) of 7.18 and a pKi (Recombinant IKKβ) of 6.30.
For `CC(C)(C)C#Cc1cc(-c2ccnc(Nc3nnc[nH]3)c2)cc2c(N)n[nH]c12` [Example 319, 5-(2-((4H-1,2,4-Triazol-3-yl)amino)pyridin-4-yl)-7-(3,3-dimethylbut-1-yn-1-yl)-1H-indazol-3-amine], the pKi (Recombinant IKKα) was 7.57 and the pKi (Recombinant IKKβ) was 6.31.
Molecule `Cn1nnc(Nc2cc(-c3cc(C#CC(C)(C)C)c4[nH]nc(N)c4c3)ccn2)n1` [Example 320, 7-(3,3-Dimethylbut-1-yn-1-yl)-5-(2-((2-methyl-2H-tetrazol-5-yl)amino)pyridin-4-yl)-1H-indazol-3-amine] has a pKi (Recombinant IKKα) of 8.30 and a pKi (Recombinant IKKβ) of 7.73.
`CC(C)(C)C#Cc1cc(-c2ccnc(Nc3ncccn3)c2)cc2c(N)n[nH]c12` [Example 321, 7-(3,3-Dimethylbut-1-yn-1-yl)-5-(2-(pyrimidin-2-ylamino)pyridin-4-yl)-1H-indazol-3-amine] was tested, and the pKi (Recombinant IKKα) was 6.69 and the pKi (Recombinant IKKβ) was 5.34.
`CC(C)(C)C#Cc1cc(-c2ccnc(NC3CCOC3)c2)cc2c(N)n[nH]c12` (stereo not shown) [Example 322, 7-(3,3-Dimethylbut-1-yn-1-yl)-5-(2-((tetrahydrofuran-3-yl)amino)pyridin-4-yl)-1H-indazol-3-amine] was tested, and the pKi (Recombinant IKKα) was 7.35 and the pKi (Recombinant IKKβ) was 5.50.
For `COC(=O)Nc1cc(-c2cc(-c3ccc(O)cc3)c3[nH]nc(N)c3c2)ccn1` [Example 323, Methyl (4-(3-Amino-7-(4-hydroxyphenyl)-1H-indazol-5-yl)pyridin-2-yl)carbamate], the pKi (Recombinant IKKα) was 8.01 and the pKi (Recombinant IKKβ) was 7.08.
With `Nc1n[nH]c2c(-c3ccc(O)cc3)cc(-c3ccnc(NC4COC4)c3)cc12` [Example 324, 4-(3-Amino-5-(2-(oxetan-3-ylamino)pyridin-4-yl)-1H-indazol-7-yl)phenol] the pKi (Recombinant IKKα) was 5.09 and the pKi (Recombinant IKKβ) was 5.33.
For `COC(=O)Nc1cc(-c2cc(-c3ccc(N)cc3)c3[nH]nc(N)c3c2)ccn1` [Example 325, Methyl (4-(3-amino-7-(4-aminophenyl)-1H-indazol-5-yl)pyridin-2-yl)carbamate], the pKi (Recombinant IKKα) was 8.22 and the pKi (Recombinant IKKβ) was 7.10.
`COC(=O)Nc1cc(-c2cc(-c3ccc(NC(C)=O)cc3)c3[nH]nc(N)c3c2)ccn1` [Example 326, Methyl (4-(7-(4-acetamidophenyl)-3-amino-1H-indazol-5-yl)pyridin-2-yl)carbamate] gave a pKi (Recombinant IKKα) of 7.85 and a pKi (Recombinant IKKβ) of 7.06.
`COC(=O)Nc1cc(-c2cc(-c3ccc(C(N)=O)cc3)c3[nH]nc(N)c3c2)ccn1` [Example 327, Methyl (4-(3-amino-7-(4-carbamoylphenyl)-1H-indazol-5-yl)pyridin-2-yl)carbamate] showed a pKi (Recombinant IKKα) of 6.21 and a pKi (Recombinant IKKβ) of 5.42.
`COC(=O)Nc1cc(-c2cc(-c3ccc(CN4CCOCC4)cc3)c3[nH]nc(N)c3c2)ccn1` [Example 328, Methyl (4-(3-amino-7-(4-(morpholinomethyl)phenyl)-1H-indazol-5-yl)pyridin-2-yl)carbamate] was tested, and the pKi (Recombinant IKKα) was 7.62 and the pKi (Recombinant IKKβ) was 6.39.
`Nc1cc(-c2cc(-c3ccc(CCN4CCOCC4)cc3)c3[nH]nc(N)c3c2)ccn1` [Example 329, 5-(2-Aminopyridin-4-yl)-7-(4-(2-morpholinoethyl)phenyl)-1H-indazol-3-amine] showed a pKi (Recombinant IKKα) of 7.85 and a pKi (Recombinant IKKβ) of 6.97.
